Experimental data reported in ChEMBL document CHEMBL1154245, “Parazoanthines A-E, hydantoin alkaloids from the Mediterranean sea anemone Parazoanthus axinellae” (J Nat Prod, 2009).
Calls of active or inactive are those of the source. The calls are words filed in the database; no cut-off is given here.

Tests used:
MDA-MB-231 = assay: Antitumor activity against human MDA-MB-231 cells; type: functional, cell-based
HT-29 = assay: Antitumor activity against human HT-29 cells; type: functional, cell-based
A549 = assay: Antitumor activity against human A549 cells; type: functional, cell-based
Plasmodium falciparum = assay: Antimalarial activity against Plasmodium falciparum FcB1; type: functional, organism-based; conditions: FcB1/Columbia
[1] = Toxicity against Dysidea avara
[2] = Toxicity against Ircinia variabilis

Structure (SMILES) | Activity (MDA-MB-231) | Activity (HT-29) | Activity (A549) | Activity (Plasmodium falciparum) | EC50 [1] | EC50 [2]
N=C(N)NCC/C=C1\NC(=O)N(/C=C/c2ccc(O)cc2)C1=O | inactive | inactive | inactive | inactive | – | –
COc1ccc(/C=C/N2C(=O)N/C(=C\CCNC(=N)N)C2=O)cc1 [PARAZOANTHINE C] | inactive | inactive | inactive | inactive | 1640 nM | 1640 nM
N=C(N)NCCC[C@@H]1NC(=O)N(/C=C/c2ccc(O)cc2)C1=O | inactive | inactive | inactive | inactive | – | –
COc1ccc(/C=C/N2C(=O)N/C(=C\CCNC(=N)N)C2=O)cc1Br | inactive | inactive | inactive | inactive | – | –
COc1ccc(/C=C/N2C(=O)N[C@@H](CCCNC(=N)N)C2=O)cc1Br | inactive | inactive | inactive | inactive | – | –
